Experimental data from patent US20240158383A1, “RIBONUCLEOTIDE REDUCTASE (RNR) INHIBITORS AND USES THEREOF” (Boundless Bio, Inc., priority 2021, published 2024).

Legend:
[1] = test system: pCHK1 (S345) in Colo320 DM cells; assay: CHK1 cellular activity (phospho-CHK1 AlphaLisa); assay type: cell-based, human; conditions: Homo sapiens, COLO 320DM, 16 h, compound overnight (approximately 16 hours)
Procedure: Phospho-CHK1 cellular activity was measured as a marker of replication stress which is a consequence of RNR inhibition.
Colo320 DM cells (ATCC #CCL-220, derived from human colorectal adenocarcinoma, Dukes' type C) were seeded on a 96-well cell culture treated assay plate at a density of 50,000 cells/well in 200 μL of RPMI-1640 media supplemented with 10% Fetal Bovine Serum and incubated at 37 degrees Celsius overnight. The following day, test compound dilutions were added directly to the plated cells by a Tecan digital dispenser to a final DMSO concentration of <0.5% and incubated at 37 degrees Celsius overnight (approximately 16 hours). The following day all culture media is removed from the cells. 75 μL of 1× AlphaLisa lysis buffer is added to each well and plates are agitated on a shaker for 30 minutes at room temperature. The lysis of cells and detection of pCHK1 (S345) are performed with reagents contained within the AlphaLisa Sure Fire assay kit (Perkin Elmer #ALSU-PCHK1-A) according to the manufacturer's instructions. 10 μL of each lysate was then transferred to a white, 384-well assay plate (Perkin Elmer #6008280). 5 μL of Acceptor mix was then added to each well of lysate in the white, 384-well assay plate and incubated in the dark at room temperature for 60 minutes. 5 μL of Donor mix was then added to each well of the white, 384-well assay plate in subdued light and incubated at room temperature for 60 minutes. Plates are read on an Alpha Technology-compatible plate reader using standard AlphaLisa settings.

RNR (RNR1:RNR2) = RNR (RNR1:RNR2) (Homo sapiens (Human), UniProt P23921+P31350); assay: RNR enzyme activity, rapid-fire mass spectrometry (RFMS) assay; assay type: biochemical; conditions: [RNR] 50 nM, 1:1 RNR1:RNR2, [CDP] 5 μM, [ATP] 1 mM, 37° C., 45 min
Sequence of RNR (RNR1:RNR2) (P23921 whole entry): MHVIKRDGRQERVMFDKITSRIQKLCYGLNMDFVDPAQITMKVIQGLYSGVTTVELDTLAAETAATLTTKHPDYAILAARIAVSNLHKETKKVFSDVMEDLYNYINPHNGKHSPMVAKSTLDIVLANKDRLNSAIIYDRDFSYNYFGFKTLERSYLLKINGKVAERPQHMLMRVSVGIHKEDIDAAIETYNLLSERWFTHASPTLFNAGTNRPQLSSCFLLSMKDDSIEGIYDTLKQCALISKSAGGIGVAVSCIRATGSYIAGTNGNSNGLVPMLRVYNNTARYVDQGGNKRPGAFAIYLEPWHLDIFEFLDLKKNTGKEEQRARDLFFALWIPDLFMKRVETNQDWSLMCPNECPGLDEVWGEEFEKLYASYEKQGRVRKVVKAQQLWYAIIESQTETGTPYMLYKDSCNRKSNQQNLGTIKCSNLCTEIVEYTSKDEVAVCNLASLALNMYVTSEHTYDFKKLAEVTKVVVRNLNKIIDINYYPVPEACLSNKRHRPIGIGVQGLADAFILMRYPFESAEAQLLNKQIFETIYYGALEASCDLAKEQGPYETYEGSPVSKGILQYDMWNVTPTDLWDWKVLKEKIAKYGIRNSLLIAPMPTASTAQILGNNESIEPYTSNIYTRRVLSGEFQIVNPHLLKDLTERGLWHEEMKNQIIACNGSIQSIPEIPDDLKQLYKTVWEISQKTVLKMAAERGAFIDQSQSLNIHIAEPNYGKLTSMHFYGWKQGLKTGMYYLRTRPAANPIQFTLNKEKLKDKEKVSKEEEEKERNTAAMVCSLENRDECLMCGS
Sequence of RNR (RNR1:RNR2) (P31350 whole entry): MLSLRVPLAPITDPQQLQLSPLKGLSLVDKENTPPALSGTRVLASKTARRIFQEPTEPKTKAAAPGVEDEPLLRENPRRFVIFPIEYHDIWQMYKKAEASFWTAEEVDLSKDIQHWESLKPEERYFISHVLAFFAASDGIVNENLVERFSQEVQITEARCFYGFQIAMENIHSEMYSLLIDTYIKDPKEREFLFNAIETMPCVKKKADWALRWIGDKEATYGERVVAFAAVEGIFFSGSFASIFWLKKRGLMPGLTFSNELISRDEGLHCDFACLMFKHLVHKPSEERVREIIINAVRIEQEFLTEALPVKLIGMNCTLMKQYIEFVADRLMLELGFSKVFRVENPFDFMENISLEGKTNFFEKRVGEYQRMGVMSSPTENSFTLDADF
Procedure: A rapid-fire mass spectrometry (RFMS) assay was used to assess RNR enzyme activity using a 384 well plate and a robotic platform.
The plate layout included two validated reference compounds (Triapine (3-AP) and Hydroxyurea (HU)): • A dose response in duplicate; top concentration: 5 μM (3-AP) and 250 μM (HU), semi-log • dilutions. • Spike wells in triplicate randomly spotted at four concentrations: • 250 μM, 100 μM, 30 μM and 2 μM for HU • 5 μM, 2 μM, 0.6 μM and 0.04 μM for 3-AP
First, the multidrop pipes were saturated for 30 minutes with enzymatic solution. Then 30 μL of Stop solution was distributed in column 24. Next, 15 μL of enzyme was distributed in column 1 to 24. Next, a pre-incubation step of 15 minutes at room temperature occurred, followed by distribution of 15 μL of substrate solution (column 1 to 24). Next, the plate was incubated for 45 minutes at 37° C. 30 μL of Stop solution was distributed to columns 1 to 23.
The final parameters for the enzyme reactions were: • Incubation: 37° C., 45 min • [CDP]: 5 μM; [ATP]: 1 mM; [NADPH]: No • [RNR]final: 50 nM with 1:1 (RNR1:RNR2) ratio • Final volume: 30 μL • Stop solution: 6% HCOOH containing 2 μM of 15
The compounds were screened at concentrations from 10 nM to 30 μM.

| IC50 [1] [µM] | IC50 (RNR (RNR1:RNR2)) [µM] | SMILES |
| --- | --- | --- |
| 50 to 100 | 0.1 to 1 | Cc1ccc(F)c([C@@H](C)[C@H](NS(=O)(=O)c2ccc(Cl)cc2C(F)(F)F)c2nn[nH]n2)c1C [Example 21, 4-chloro-N-((1S,2R)-2-(6-fluoro-2,3-dimethylphenyl)-1-(2H-tetrazol-5-yl)propyl)-2-(trifluoromethyl)benzenesulfonamide] |
| 50 to 100 | 0.1 to 1 | Cc1ccc(F)c([C@@H](C)[C@H](NS(=O)(=O)c2ccc(Cl)c(C(F)(F)C(=O)N(C)C)c2)c2nn[nH]n2)c1C [Example 72, 2-(2-chloro-5-(N-((1S,2R)-2-(6-fluoro-2,3-dimethylphenyl)-1-(2H-tetrazol-5-yl)propyl)sulfamoyl)phenyl)-2,2-difluoro-N,N-dimethylacetamide] |
| ≤ 10 | ≤ 0.1 | COc1cc(Cl)ccc1S(=O)(=O)N[C@H](c1nn[nH]n1)[C@H](C)c1c(F)ccc(C)c1C [Example 1, 4-chloro-N-[(1S,2R)-2-(6-fluoro-2,3-dimethylphenyl)-1-(2H-1,2,3,4-tetrazol-5-yl)propyl]-2-methoxybenzene-1-sulfonamide] |
| 50 to 100 | 1 to 5 | Cc1ccc(F)c([C@@H](C)[C@H](NS(=O)(=O)c2ccc(F)c(C(N)=O)c2)c2nn[nH]n2)c1C [Example 38, 2-fluoro-5-(N-((1S,2R)-2-(6-fluoro-2,3-dimethylphenyl)-1-(2H-tetrazol-5-yl)propyl)sulfamoyl)benzamide] |
| 50 to 100 | 0.1 to 1 | COc1cc(C#N)ccc1S(=O)(=O)N[C@H](c1nn[nH]n1)[C@H](C)c1c(F)ccc(C)c1C [Example 64, 4-cyano-N-((1S,2R)-2-(6-fluoro-2,3-dimethylphenyl)-1-(2H-tetrazol-5-yl)propyl)-2-methoxybenzenesulfonamide] |
| 50 to 100 | ≤ 0.1 | Cc1ccc(F)c([C@@H](C)[C@H](NS(=O)(=O)c2c(Cl)cc(Cl)c3c2OCCN3C)c2nn[nH]n2)c1C [Example 28, 5,7-dichloro-N-((1S,2R)-2-(6-fluoro-2,3-dimethylphenyl)-1-(2H-tetrazol-5-yl)propyl)-4-methyl-3,4-dihydro-2H-benzo[b][1,4]oxazine-8-sulfonamide] |
| 10 to 30 | 0.1 to 1 | Cc1ccc(F)c([C@@H](C)[C@H](NS(=O)(=O)c2ccc(Cl)cc2C2CC2)c2nn[nH]n2)c1C [Example 61, 4-chloro-2-cyclopropyl-N-((1S,2R)-2-(6-fluoro-2,3-dimethylphenyl)-1-(2H-tetrazol-5-yl)propyl)benzenesulfonamide] |
| 50 to 100 | ≤ 0.1 | Cc1ccc(F)c([C@@H](C)[C@H](NS(=O)(=O)c2ccc(Cl)c3c2OCC[C@H]3O)c2nn[nH]n2)c1C [Example 11, (R)-5-chloro-N-((1S,2R)-2-(6-fluoro-2,3-dimethylphenyl)-1-(2H-tetrazol-5-yl)propyl)-4-hydroxychromane-8-sulfonamide] |
| 50 to 100 | 1 to 5 | Cc1ccc(Cl)c(S(=O)(=O)N[C@H](c2nn[nH]n2)[C@H](C)c2c(F)ccc(C)c2C)c1 [Example 60, 2-chloro-N-((1S,2R)-2-(6-fluoro-2,3-dimethylphenyl)-1-(2H-tetrazol-5-yl)propyl)-5-methylbenzenesulfonamide] |
| 10 to 30 | ≤ 0.1 | COc1c(S(=O)(=O)N[C@H](c2nn[nH]n2)[C@H](C)c2c(F)ccc(C)c2C)ccc(Cl)c1[C@H](C)O (racemic) [Example 16, rac-4-chloro-N-((1R,2S)-2-(6-fluoro-2,3-dimethyphenyl)-1-(2H-tetrazol-5-yl)propyl)-3-((R)-1-hydroxyethyl)-2-methoxybenzenesulfonamide] |
| 50 to 100 | 0.1 to 1 | Cc1ccc(F)c([C@@H](C)[C@H](NS(=O)(=O)c2ccc(Cl)c(Cl)c2)c2nn[nH]n2)c1C [Example 32, 3,4-dichloro-N-((1S,2R)-2-(6-fluoro-2,3-dimethylphenyl)-1-(2H-tetrazol-5-yl)propyl)benzenesulfonamide] |
| 30 to 50 | 0.1 to 1 | CCc1cc(Cl)ccc1S(=O)(=O)N[C@H](c1nn[nH]n1)[C@H](C)c1c(F)ccc(C)c1C [Example 20, 4-chloro-2-ethyl-N-((1S,2R)-2-(6-fluoro-2,3-dimethylphenyl)-1-(2H-tetrazol-5-yl)propyl)benzenesulfonamide] |
| 10 to 30 | 0.1 to 1 | Cc1ccc(F)c([C@@H](C)[C@H](NS(=O)(=O)c2ccc(Cl)cc2F)c2nn[nH]n2)c1C [Example 19, 4-chloro-2-fluoro-N-((1S,2R)-2-(6-fluoro-2,3-dimethylphenyl)-1-(2H-tetrazol-5-yl)propyl)benzenesulfonamide] |
| 50 to 100 | ≤ 0.1 | Cc1ccc(F)c([C@@H](C)[C@H](NS(=O)(=O)c2ccc(Cl)c3c2OCCC3=O)c2nn[nH]n2)c1C [Example 9, 5-chloro-N-((1S,2R)-2-(6-fluoro-2,3-dimethylphenyl)-1-(2H-tetrazol-5-yl)propyl)-4-oxochromane-8-sulfonamide] |
| 50 to 100 | 5 to 30 | COc1cc(Cl)ccc1S(=O)(=O)N[C@H](c1nnnn1C)[C@H](C)c1c(F)ccc(C)c1C [Example 34, 4-chloro-N-((1S,2R)-2-(6-fluoro-2,3-dimethylphenyl)-1-(1-methyl-1H-tetrazol-5-yl)propyl)-2-methoxybenzensulfonamide] |
| 10 to 30 | 0.1 to 1 | Cc1cc(Cl)ccc1S(=O)(=O)N[C@H](c1nn[nH]n1)[C@H](C)c1c(F)ccc(C)c1C [Example 25, 4-chloro-N-((1S,2R)-2-(6-fluoro-2,3-dimethylphenyl)-1-(2H-tetrazol-5-yl)propyl)-2-methylbenzenesulfonamide] |
| 10 to 30 | 0.1 to 1 | COC(=O)Cc1cc(Cl)ccc1S(=O)(=O)N[C@H](c1nn[nH]n1)[C@H](C)c1c(F)ccc(C)c1C (racemic) [Example 14, rac-methyl 2-(5-chloro-2-(N-((1R,2S)-2-(6-fluoro-2,3-dimethylphenyl)-1-(2H-tetrazol-5-yl)propyl)sulfamoyl)phenyl)acetate] |
| 50 to 100 | 0.1 to 1 | CNC(=O)c1cc(Cl)ccc1S(=O)(=O)N[C@H](c1nn[nH]n1)[C@H](C)c1c(F)ccc(C)c1C [Example 76, 5-chloro-2-(N-((1S,2R)-2-(6-fluoro-2,3-dimethylphenyl)-1-(2H-tetrazol-5-yl)propyl)sulfamoyl)-N-methylbenzamide] |
| 50 to 100 | 1 to 5 | Cc1ccc(F)c([C@@H](C)[C@H](NS(=O)(=O)c2cc(Cl)c(Cl)cc2F)c2nn[nH]n2)c1C [Example 40, 4,5-dichloro-2-fluoro-N-((1S,2R)-2-(6-fluoro-2,3-dimethylphenyl)-1-(2H-tetrazol-5-yl)propyl)benzenesulfonamide] |
| 10 to 30 | ≤ 0.1 | COc1c(S(=O)(=O)N[C@H](c2nn[nH]n2)[C@H](C)c2c(F)ccc(C)c2C)ccc(Cl)c1[C@@H](C)O (racemic) [Example 17, rac-4-chloro-N-((1R,2S)-2-(6-fluoro-2,3-dimethylphenyl)-1-(2H-tetrazol-5-yl)propyl)-3-((S)-1-hydroxyethyl)-2-methoxybenzenesulfonamide] |
| 10 to 30 | 0.1 to 1 | CNc1cc(Cl)ccc1S(=O)(=O)N[C@H](c1nn[nH]n1)[C@H](C)c1c(F)ccc(C)c1C [Example 75, 4-chloro-N-((1S,2R)-2-(6-fluoro-2,3-dimethylpehnyl)-1-(2H-tetrazol-5-yl)propyl)-2-(methylamino)benzenesulfonamide] |
